The source of these data is patent US6495544B2, “Homoiminopiperidinyl hexanoic acid inhibitors of inducible nitric oxide synthase” (Pharmacia Corporation, priority 2000, dated 2002).

The target in assay [1] is T1, Human inducible NOS (hiNOS) (Homo sapiens, UniProt P35228).
T1 construct: made in house; host or cells: Sf9 insect cells, baculovirus vector
The assay is described as follows: Citrulline assay for nitric oxide synthase, hiNOS. It counts as biochemical. Particulars: 30 μM L-arginine, 37° C., 15 minutes. The procedure: (§1) Nitric oxide synthase (NOS) activity is measured by monitoring the conversion of [^3H]-arginine to [^3H]-citrulline (Bredt and Snyder, Proc. Natl. Acad. Sci. U.S.A., 87, 682-685, 1990 and Misko et al, Eur. J. Pharm., 233, 119-125, 1993). Human inducible NOS (hiNOS), human endothelial constitutive NOS (hecNOS) and human neuronal constitutive NOS (hncNOS) are each cloned from RNA extracted from human tissue. The cDNA for human inducible NOS (hiNOS) is isolated from a lambda cDNA library made from RNA extracted from a colon sample from a patient with ulcerative colitis. The cDNA for human endothelial constitutive NOS (hecNOS) is isolated from a lambda cDNA library made from RNA extracted from human umbilical vein endothelial cells (HUVEC) and the cDNA for human neuronal constitutive NOS (hncNOS) is isolated from a lambda cDNA library made from RNA extracted from human cerebellum obtained from a cadaver. The recombinant enzymes are expressed in Sf9 insect cells using a baculovirus vector (Rodi et al, in The Biology of Nitric Oxide , Pt. 4: Enzymology Biochemistry and Immunology; Moncada, S., Feelisch, M., Busse, R., Higgs, E., Eds.; Portland Press Ltd.: London, 1995; pp 447-450). Enzyme activity is isolated from soluble cell extracts and partially purified by DEAE-Sepharose chromatography. To measure NOS activity, 10 μL of enzyme is added to 40 μL of 50 mM Tris (pH 7.6) in the presence or absence of test compounds and the reaction initiated by the addition of 50 μL of a reaction mixture containing 5 mM Tris (pH 7.6), 2.0 mg/mL bovine serum albumin, 2.0 mM DTT, 4.0 mM CaCl2, 20 μM FAD, 100 PM tetrahydrobiopterin, 0.4-2.0 mM NADPH and 60 μM L-arginine containing 0.9 μCi of L-[2,3-^3H]-arginine. The final concentration of L-arginine in the assay is 30 μM. For hecNOS or hncNOS, calmodulin is included at a final concentration of 40-100 nM. […] [3H]-Citrulline is separated by chromatography on Dowex 50W X-8 cation exchange resin and radioactivity determined with a liquid scintillation counter. […]

The target of assay [2] is T2, human endothelial constitutive NOS (hecNOS) (Homo sapiens, UniProt P29474).
T2 construct: made in house; host or cells: Sf9 insect cells, baculovirus vector
The assay is described as follows: Citrulline assay for nitric oxide synthase, hecNOS. Particulars: 30 μM L-arginine, 37° C., 15 minutes, calmodulin. The class given is biochemical. The procedure: as §1

Assay [3] addresses T3, hecNOS (Homo sapiens, UniProt P29474).
T3 construct: made in house; host or cells: Sf9 insect cells, baculovirus vector
The assay is described as follows: Assay for time dependent inhibition, hecNOS. It counts as biochemical. Particulars: 60 min preincubation, read-out: % inhibition of NOS activity, hecNOS. As for the experimental part:
as §1, with “447-450).” for “447-450). Enzyme activity is isolated from soluble cell extracts and partially purified by DEAE-Sepharose chromatography. To measure NOS activity, 10 μL of enzyme is added to 40 μL of 50 mM Tris (pH 7.6) in the presence or absence of test compounds and the reaction initiated by the addition of 50 μL of a reaction mixture containing 5 mM Tris (pH 7.6), 2.0 mg/mL bovine serum albumin, 2.0 mM DTT, 4.0 mM CaCl2, 20 μM FAD, 100 PM tetrahydrobiopterin, 0.4-2.0 mM NADPH and 60 μM L-arginine containing 0.9 μCi of L-[2,3-^3H]-arginine. The final concentration of L-arginine in the assay is 30 μM. For hecNOS or hncNOS, calmodulin is included at a final concentration of 40-100 nM.”

Assay [4] has as its system inducible nitric oxide synthase. The assay is described as follows: In vivo assay, endotoxin-treated rats, plasma nitrite/nitrate. The conditions noted are these: oral; for ED50: Rattus norvegicus, read-out: ED50, inhibition of LPS-induced increase in plasma nitrite/nitrate. The procedure:
Compounds are administered orally 0.5-1 hours prior to LPS administration and plasma nitrite/nitrate levels are determined 5 hours following LPS administration.

Assay [5] deals with T4, hncNOS (Homo sapiens, UniProt P29475).
T4 construct: made in house; host or cells: Sf9 insect cells, baculovirus vector
T4 sequence (P29475 whole entry): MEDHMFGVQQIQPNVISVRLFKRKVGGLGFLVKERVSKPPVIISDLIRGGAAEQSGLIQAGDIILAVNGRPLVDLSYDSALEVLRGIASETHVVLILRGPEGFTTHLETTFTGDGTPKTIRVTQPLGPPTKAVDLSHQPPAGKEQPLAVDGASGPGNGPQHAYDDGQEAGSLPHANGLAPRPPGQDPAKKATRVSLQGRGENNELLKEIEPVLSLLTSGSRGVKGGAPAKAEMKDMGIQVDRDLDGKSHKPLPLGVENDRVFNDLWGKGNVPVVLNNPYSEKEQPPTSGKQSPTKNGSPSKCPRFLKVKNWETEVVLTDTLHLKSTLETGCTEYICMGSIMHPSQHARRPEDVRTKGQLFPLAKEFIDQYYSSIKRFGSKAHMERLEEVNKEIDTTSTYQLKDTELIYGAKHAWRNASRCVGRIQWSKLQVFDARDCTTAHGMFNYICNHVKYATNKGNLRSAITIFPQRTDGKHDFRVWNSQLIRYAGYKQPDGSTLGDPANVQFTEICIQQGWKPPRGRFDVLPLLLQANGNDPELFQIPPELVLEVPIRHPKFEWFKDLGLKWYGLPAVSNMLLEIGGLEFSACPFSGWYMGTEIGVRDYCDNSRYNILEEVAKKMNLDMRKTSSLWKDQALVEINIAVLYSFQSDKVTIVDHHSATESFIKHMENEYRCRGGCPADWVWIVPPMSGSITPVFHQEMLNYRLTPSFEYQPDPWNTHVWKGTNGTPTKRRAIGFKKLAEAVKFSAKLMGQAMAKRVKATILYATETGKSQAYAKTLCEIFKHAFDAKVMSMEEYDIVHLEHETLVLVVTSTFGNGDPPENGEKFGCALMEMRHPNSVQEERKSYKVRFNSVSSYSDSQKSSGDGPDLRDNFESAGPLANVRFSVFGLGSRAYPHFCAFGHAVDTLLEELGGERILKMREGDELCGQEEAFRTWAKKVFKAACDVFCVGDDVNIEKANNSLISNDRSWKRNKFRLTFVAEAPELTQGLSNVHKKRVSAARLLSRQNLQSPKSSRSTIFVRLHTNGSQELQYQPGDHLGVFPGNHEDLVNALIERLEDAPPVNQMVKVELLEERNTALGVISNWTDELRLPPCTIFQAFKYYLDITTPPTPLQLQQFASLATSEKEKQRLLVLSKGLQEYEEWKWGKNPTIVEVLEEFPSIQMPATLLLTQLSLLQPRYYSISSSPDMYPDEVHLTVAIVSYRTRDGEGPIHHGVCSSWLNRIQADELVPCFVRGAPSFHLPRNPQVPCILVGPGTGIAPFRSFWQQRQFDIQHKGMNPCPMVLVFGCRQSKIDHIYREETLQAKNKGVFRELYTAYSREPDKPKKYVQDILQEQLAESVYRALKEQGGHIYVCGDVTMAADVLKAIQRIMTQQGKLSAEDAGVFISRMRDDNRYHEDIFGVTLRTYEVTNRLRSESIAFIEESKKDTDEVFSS
The assay is described as follows: Assay for time dependent inhibition, hncNOS. It counts as biochemical. The conditions noted are these: 60 min preincubation. The procedure: as §1

The test system of assay [6] is nitric oxide synthase induced by recombinant human IL-1β in human cartilage explants. The assay is described as follows: Human cartilage explant assay, nitrite production. The class given is cell-based. Particulars: IL-1β stimulated, read-out: IC50, inhibition of nitrite production. The procedure:
Bone pieces are rinsed twice with Dulbecco's Phosphate Buffered Saline (GibcoBRL) and once with Dulbecco's Modified Eagles Medium (GibcoBRL) and placed into a petri dish with phenol red free Minimum Essential Medium (MEM) (GibcoBRL). Cartilage was cut into small explants of approximately 25-45 mg in weight and one or two explants per well are placed into 48 well culture plates with 500 μL of culture media per well. The culture media was either a custom modification of Minimum Essential Medium(Eagle) with Earle's salts (GibcoBRL) prepared without L-Arginine, without L-Glutamine and without phenol red or a custom modification of serumless Neuman and Tytell (GibcoBRL) medium prepared without L-arginine, without insulin, without ascorbic acid, without L-glutamine and without phenol red. Both are supplemented before use with 100 μM L-Arginine (Sigma), 2 mM L-glutamine, 1×HL-1 supplement (BioWhittaker), […] ascorbic acid (Sigma) and 150 pg/ml recombinant human IL-1β (RD Systems) to induce nitric oxide synthase. Compounds are then added in 10 μL aliquots and the explants incubated at 37° C. with 5% CO2 for 18-24 hours. […] This supernatant is analyzed for nitrite with a fluorometric assay (Misko et al, Anal. Biochem., 214, 11-16, 1993). […] IC50 values (Table III) are determined from plotting the percent inhibition of nitrite production at six different concentrations of inhibitor.

Assay [7] deals with T5, human neuronal constitutive NOS (hncNOS) (Homo sapiens, UniProt P29475).
T5 construct: made in house; host or cells: Sf9 insect cells, baculovirus vector
The assay is described as follows: Citrulline assay for nitric oxide synthase, hncNOS. The class given is biochemical. Particulars: 30 μM L-arginine, 37° C., 15 minutes, calmodulin. As for the experimental part: as §1

Setting [8] is: 0.5-1 hours prior to LPS, plasma 5 hours after LPS.

pIC50: −log10 of the molar value.

T3 sequence (P29474 2-1203): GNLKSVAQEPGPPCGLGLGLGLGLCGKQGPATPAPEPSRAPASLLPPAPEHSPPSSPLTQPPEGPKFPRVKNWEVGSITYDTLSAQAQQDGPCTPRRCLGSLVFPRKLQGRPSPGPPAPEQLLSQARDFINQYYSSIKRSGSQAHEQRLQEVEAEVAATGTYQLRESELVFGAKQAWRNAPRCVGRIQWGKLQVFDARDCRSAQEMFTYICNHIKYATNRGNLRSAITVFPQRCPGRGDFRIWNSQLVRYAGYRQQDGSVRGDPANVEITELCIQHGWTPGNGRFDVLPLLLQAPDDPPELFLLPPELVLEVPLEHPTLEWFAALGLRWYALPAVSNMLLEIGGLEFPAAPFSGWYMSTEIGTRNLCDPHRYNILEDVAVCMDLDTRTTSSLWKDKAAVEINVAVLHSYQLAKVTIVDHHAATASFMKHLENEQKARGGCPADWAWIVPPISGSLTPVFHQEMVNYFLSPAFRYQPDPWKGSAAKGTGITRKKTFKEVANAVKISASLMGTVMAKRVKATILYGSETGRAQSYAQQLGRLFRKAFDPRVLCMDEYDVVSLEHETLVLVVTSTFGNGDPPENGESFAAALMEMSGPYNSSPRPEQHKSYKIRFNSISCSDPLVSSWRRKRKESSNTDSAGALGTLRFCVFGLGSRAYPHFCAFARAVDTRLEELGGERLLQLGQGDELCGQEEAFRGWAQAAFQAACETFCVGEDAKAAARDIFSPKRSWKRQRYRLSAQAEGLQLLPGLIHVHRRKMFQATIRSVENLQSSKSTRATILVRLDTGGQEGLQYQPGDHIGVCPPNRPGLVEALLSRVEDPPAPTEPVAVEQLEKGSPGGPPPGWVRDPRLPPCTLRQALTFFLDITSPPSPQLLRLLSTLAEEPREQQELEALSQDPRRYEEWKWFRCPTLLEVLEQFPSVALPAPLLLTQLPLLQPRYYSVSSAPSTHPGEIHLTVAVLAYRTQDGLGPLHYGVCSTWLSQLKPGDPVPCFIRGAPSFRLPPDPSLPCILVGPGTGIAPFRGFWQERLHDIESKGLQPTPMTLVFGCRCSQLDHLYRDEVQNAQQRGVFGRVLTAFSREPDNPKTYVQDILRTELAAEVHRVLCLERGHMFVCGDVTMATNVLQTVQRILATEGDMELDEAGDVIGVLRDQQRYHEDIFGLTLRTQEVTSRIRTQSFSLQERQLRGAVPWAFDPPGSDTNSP

Turning to `Cl.N=C1CCCC[C@H](CCCC[C@@H](N)C(=O)O)N1.O.O.O` [Example 1, (αR,2S)-α-aminohexahydro-7-imino-1H-azepine-2-hexanoic acid, trihydrate hydrochloride], the pIC50 was greater than 5.52 in assay [1], less than 4.52 in assay [2], greater than 5.00 in assay [6] and less than 5.52 in assay [7]. Moreover, the inhibition at 33 µM in assay [3] worked out at 11%. Moreover, in assay [4] (setting [8]), the ED50 was less than 3 mg/kg. The “effect on LPS-induced increase in plasma nitrite/nitrate levels” value in assay [4] was “inhibited the LPS-induced increase in plasma nitrite/nitrate levels in a dose dependent manner”. Further, the “ED50, inhibition of LPS-induced increase in plasma nitrite/nitrate” value in assay [4] (0.5-1 hours prior to LPS, plasma 5 hours after LPS, trihydrate hydrochloride) was less than 3 mg/kg. For the same compound, the “% inhibition of NOS activity, hncNOS” value in assay [5] (5 μM) is on record as 0% @ 5 μM @ 60 min.
For the compound `Cl.N=C1CCCC[C@@H](CCCC[C@H](N)C(=O)O)N1.O.O.O` [Example 2, (αS,2R)-α-aminohexahydro-7-imino-1H-azepine-2-hexanoic acid, trihydrate hydrochloride], the negative logarithm of the IC50 (pIC50) in assay [1] was greater than 5.30; in assay [2], less than 3.82; in assay [7], less than 5.00. In addition, the “% inhibition of NOS activity, hncNOS” value in assay [5] (13 μM) stood at 0% @ 13 μM @ 60 min.
For `Cl.N=C1CCCC[C@H](CCCC[C@H](N)C(=O)O)N1.O.O.O` [Example 4, (αS,2S)-α-aminohexahydro-7-imino-1H-azepine-2-hexanoic acid, trihydrate hydrochloride], the pIC50 in assay [1] is greater than 5.52; in assay [2] it was less than 4.82; in assay [6] it was greater than 5.00; in assay [7], less than 5.52. Further, in assay [4] (setting [8]), the ED50 was less than 5 mg/kg. Also, in assay [5] (3 μM), the “% inhibition of NOS activity, hncNOS” value turned out to be 0% @ 3 μM @ 60 min.

Broadly, the pIC50 is −log10 of the IC50, conventionally taken in molar units. Usually inhibition stands for the share of the control response that was lost under treatment.
